Publication PMC5421785, “Citrullination only infrequently impacts peptide binding to HLA class II MHC” (PLoS ONE, 2017)
Read-outs that look alike come from different tables or passages of the source. Square brackets hold non-standard residues; d marks the D form. Peptide text beside a SMILES is read from it. Cit = NC(=O)NCCC[C@H](N)C(=O)O

What was measured:
[1] = target: T1, HLA-DRB1*01:01 (Homo sapiens, UniProt P01903+P01911, A100R/D57E/F55L/F60I/F76Y/I96L/L162R/M171V/P40L/Q125E/R42F/V115G/Y59C); test: HLA class II peptide binding, inhibition of radiolabeled peptide binding to purified MHC
T1 construct: EBV transformed homozygous cell lines were used as sources of MHC molecules; endogenous in cells; host or cells: EBV transformed homozygous cell lines

[2] = target: T2, HLA-DRB1*04:01 (Homo sapiens, UniProt P01903+P01911, A100K/A169T/F76Y/I96L/K127E/L162R/M171V/N62H/P40V/Q125Y/R42H/S133A/S149N/S66Y/V115G/V209L/W38E); test: as above
T2 construct: EBV transformed homozygous cell lines were used as sources of MHC molecules; endogenous in cells; host or cells: EBV transformed homozygous cell lines

[3] = citrullinated 15-mer peptide (X = citrulline), purified HLA-DRB1*01:01, read-out: DRB1*01:01 binding capacity, Cit peptide (IC50 nM)
[4] = citrullinated 15-mer peptide (X = citrulline), purified HLA-DRB1*04:01, read-out: DRB1*04:01 binding capacity, Cit peptide (IC50 nM)
[5] = citrullinated peptide as listed (X at Cit position), read-out: DRB1*01:01 binding capacity Cit peptide (IC50 nM)
[6] = value of the wild-type (non-citrullinated) counterpart of the listed peptide, read-out: DRB1*01:01 binding capacity WT peptide (IC50 nM)
[7] = citrullinated peptide as listed (X at Cit position), read-out: DRB1*04:01 binding capacity Cit peptide (IC50 nM)
[8] = value of the wild-type (non-citrullinated) counterpart of the listed peptide, read-out: DRB1*04:01 binding capacity WT peptide (IC50 nM)

Row | IC50 [1, 3] | IC50 [2, 4] | SMILES | also measured
1 | 2210 nM | > 40000 nM | CC(C)C[C@H](NC(=O)CNC(=O)[C@@H]1CCCN1C(=O)[C@H](Cc1ccccc1)NC(=O)CNC(=O)[C@H](CCCNC(N)=O)NC(=O)[C@@H](N)CCC(=O)O)C(=O)N1CCC[C@H]1C(=O)NCC(=O)N1CCC[C@H]1C(=O)N[C@@H](CO)C(=O)NCC(=O)N[C@@H](CCC(=O)O)C(=O)N1CCC[C@H]1C(=O)NCC(=O)O [EXGFPGLPGPSGEPG] (H-E[Cit]GFPGLPGPSGEPG-OH) | 
2 | 96 nM | > 40000 nM | CC(C)C[C@H](NC(=O)CNC(=O)[C@H](CCCNC(N)=O)NC(=O)[C@@H](N)CCC(=O)O)C(=O)N[C@@H](CCCCN)C(=O)NCC(=O)N[C@@H](Cc1c[nH]cn1)C(=O)N[C@@H](CCCNC(=N)N)C(=O)NCC(=O)N[C@@H](Cc1ccccc1)C(=O)N[C@H](C(=O)NCC(=O)N[C@@H](CC(C)C)C(=O)N[C@@H](CCC(N)=O)C(=O)NCC(=O)O)[C@@H](C)O [EXGLKGHRGFTGLQG] (H-E[Cit]GLKGHRGFTGLQG-OH) | 
3 | 1620 nM | > 40000 nM | C[C@H](NC(=O)CNC(=O)[C@H](C)NC(=O)[C@@H]1CCCN1C(=O)CNC(=O)[C@@H](NC(=O)[C@H](CCCNC(=N)N)NC(=O)CNC(=O)[C@H](CCCNC(N)=O)NC(=O)[C@@H](N)CCC(=O)O)[C@@H](C)O)C(=O)N[C@@H](C)C(=O)NCC(=O)N[C@@H](C)C(=O)N[C@@H](CCCNC(=N)N)C(=O)NCC(=O)O [EXGRTGPAGAAGARG] (H-E[Cit]GRTGPAGAAGARG-OH) | 
4 |  |  | CC[C@H](C)[C@H](NC(=O)[C@H](CCC(=O)O)NC(=O)[C@H](CCC(=O)O)NC(=O)[C@H](CCC(N)=O)NC(=O)[C@H](CC(C)C)NC(=O)[C@H](CO)NC(=O)[C@H](CCC(=O)O)NC(=O)[C@@H](NC(=O)[C@H](CCCCN)NC(=O)[C@H](CCCNC(N)=O)NC(=O)[C@@H](N)CCC(=O)O)C(C)C)C(=O)N[C@@H](C)C(=O)N[C@@H](Cc1ccccc1)C(=O)N[C@@H](CC(C)C)C(=O)N[C@@H](CCCCN)C(=O)O [EXKVESLQEEIAFLK] (H-E[Cit]KVESLQEEIAFLK-OH) | IC50 ([1]; citrullinated 15-mer (X), purified MHC, inhibition of radiolabeled peptide binding, dash = IC50 >40,000 nM, read-out: DRB1*01:01 binding capacity, Cit peptide (IC50 nM)): 148 nM; IC50 ([2]; citrullinated 15-mer (X), purified MHC, inhibition of radiolabeled peptide binding, dash = IC50 >40,000 nM, read-out: DRB1*04:01 binding capacity, Cit peptide (IC50 nM)): > 40000 nM
5 | 5960 nM | 1160 nM | CSCC[C@H](NC(=O)[C@H](CCC(=O)O)NC(=O)[C@H](CCCNC(=N)N)NC(=O)[C@H](CCSC)NC(=O)[C@H](CCC(N)=O)NC(=O)[C@H](CCCNC(N)=O)NC(=O)[C@@H](N)CCC(=O)O)C(=O)N[C@@H](CCC(=O)O)C(=O)N[C@@H](CCC(=O)O)C(=O)N[C@@H](CC(N)=O)C(=O)N[C@@H](Cc1ccccc1)C(=O)N[C@@H](C)C(=O)N[C@H](C(=O)N[C@@H](CCC(=O)O)C(=O)N[C@@H](C)C(=O)O)C(C)C [EXQMREMEENFAVEA] (H-E[Cit]QMREMEENFAVEA-OH) | 
6 |  |  | CC[C@H](C)[C@H](NC(=O)[C@H](CC(=O)O)NC(=O)[C@@H](NC(=O)[C@@H](NC(=O)[C@@H]1CCCN1C(=O)[C@H](CC(C)C)NC(=O)[C@H](CCCNC(N)=O)NC(=O)[C@H](CO)NC(=O)[C@@H](NC(=O)[C@H](CCCCN)NC(=O)[C@H](CCC(N)=O)NC(=O)[C@H](CO)NC(=O)[C@H](CCCNC(=N)N)NC(=O)[C@H](Cc1ccc(O)cc1)NC(=O)[C@@H](N)CCC(=O)O)[C@@H](C)O)[C@@H](C)CC)[C@@H](C)CC)C(=O)O [EYRSQKTSXLPIIDI] (H-EYRSQKTS[Cit]LPIIDI-OH) | IC50 [1, 5]: 6.9 nM; IC50 [1, 6]: 14 nM; IC50 [2, 7]: 316 nM; IC50 [2, 8]: 314 nM
7 |  |  | CC[C@H](C)[C@H](NC(=O)[C@H](CC(=O)O)NC(=O)[C@@H](NC(=O)[C@@H](NC(=O)[C@@H]1CCCN1C(=O)[C@H](CC(C)C)NC(=O)[C@H](CCCNC(=N)N)NC(=O)[C@H](CO)NC(=O)[C@@H](NC(=O)[C@H](CCCCN)NC(=O)[C@H](CCC(N)=O)NC(=O)[C@H](CO)NC(=O)[C@H](CCCNC(N)=O)NC(=O)[C@H](Cc1ccc(O)cc1)NC(=O)[C@@H](N)CCC(=O)O)[C@@H](C)O)[C@@H](C)CC)[C@@H](C)CC)C(=O)O [EYXSQKTSRLPIIDI] (H-EY[Cit]SQKTSRLPIIDI-OH) | IC50 [1, 5]: 5.9 nM; IC50 [1, 6]: 14 nM; IC50 [2, 7]: 473 nM; IC50 [2, 8]: 314 nM
8 | 642 nM | 768 nM | CC[C@H](C)[C@H](NC(=O)[C@@H](NC(=O)[C@H](CC(=O)O)NC(=O)[C@H](CCC(N)=O)NC(=O)[C@H](Cc1ccc(O)cc1)NC(=O)[C@H](CC(N)=O)NC(=O)[C@H](C)NC(=O)[C@H](C)NC(=O)[C@H](CCC(=O)O)NC(=O)[C@@H](NC(=O)[C@H](C)NC(=O)[C@@H](N)Cc1ccccc1)C(C)C)[C@@H](C)O)C(=O)NCC(=O)N[C@@H](CCCNC(N)=O)C(=O)N[C@@H](CC(C)C)C(=O)O [FAVEAANYQDTIGXL] (H-FAVEAANYQDTIG[Cit]L-OH) | 
